From patent publication US5994349A, “3-carboalkoxy-2, 3-dihydro-1H-phenothiazin-4[10H]-one derivatives” (priority 1997, dated 1999)
Read-outs that look alike come from different tables or passages of the source.

Experiments:
[1] = tested on: pentylenetetrazol seizures; assay: subcutaneous pentylenetetrazol (scMet) test, Phase I, mice ip; assay type: in vivo, male Carworth Farms No. 1 (CF1) mice; details: Mus musculus, mice ip
[2] = tested on: maximal electroshock seizures; assay: maximal electroshock (MES) test, Phase I, mice ip; assay type: in vivo, male Carworth Farms No. 1 (CF1) mice; details: Mus musculus
Summary of the method: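 Male CF1 mice (18-25 g) dosed ip at 30, 100 and 300 mg/kg in 0.5% methylcellulose, tested 30 min and 4 h later (sometimes 2 h and 6 h). Corneal 60-cycle, 50 mA current for 0.2 s; protection = abolition of hind limb tonic extension, scored as protected/tested.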

[3] = tested on: neurotoxicity (rotorod); assay: rotorod test for neurological toxicity (Tox), Phase I, mice ip; assay type: in vivo, male Carworth Farms No. 1 (CF1) mice
Summary of the method: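 Neurological toxicity was assessed in Phase I with the rotorod test in male Carworth Farms No. 1 (CF1) mice weighing 18-25 g, dosed intraperitoneally. Each mouse was set on a knurled plastic rod of 1 inch diameter turning at 6 rpm, a speed normal mice can stay on indefinitely. Motor impairment was recorded 30 min and 4 h after dosing, sometimes also at 2 h and 6 h.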

[4] = tested on: maximal electroshock seizures; assay: maximal electroshock (MES) test, oral rat (Phase VIA/VIB); assay type: in vivo, male Sprague-Dawley rats; details: 30 mg/kg
[5] = tested on: neurotoxicity (rotorod); assay: rotorod toxicity, oral rat (Phase VIA/VIB); assay type: in vivo, male Sprague-Dawley rats; details: rat oral, 30 mg/kg
Summary of the method: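 Male Sprague-Dawley rats (100-150 g) dosed orally. Neurotoxicity scored by ability to stay on a 1 inch diameter knurled plastic rod rotating at 6 rpm.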

[6] = stability in refluxing DMSO; assay type: physicochemical; details: refluxing DMSO for periods up to 40 min, forming 4m
Protocol: Without wishing to be held to any particular theory, when experimental conditions for the final step are identical for each ester, (i.e., 40 min reflux in DMSO), it is believed that the ter-butyl compound 4c (X=H) undergoes thermal decomposition to give 2,3-dihydro-1H-phenothiazin-4[10H]-one, 4d (X=H). Thermal decomposition of the desired phenothiazine 4c (X=H) to butylene and the b-keto acid (4, R=X=H) is suspected, followed by decarboxylation of the latter compound to 4d (X=H). This is substantiated by the formation of the 4c series by employing shorter reflux times in DMSO. […] Friary and coworkers have shown that 7c (R=C(CH3)3) is readily decarboxylated under acid-catalyzed conditions to form 7d (see Scheme III below). Friary, R. J.; Gilligan, J. M.; Szajewski, R. P.; Falci, K. J.; Franck, R. W. Heterocyclic syntheses via the intramolecular acylation of enamines derived from animo acids. J. Org. Chem. 1973, 38, 3487-3490. [drawing 7]

[7] = 0.5 h, 30 min, read-out: scMet 30 min
[8] = 4 h, read-out: MES 4 h (converted)
[9] = 0.5 h, 30 min, read-out: MES 30 min (converted)

SMILES: C[C@@H]1CC2=C(Sc3cc(Br)ccc3N2)C(=O)[C@H]1C(=O)OC(C)(C)C (relative stereo) [Compound 4l, 7-Bromo-3-carbo-ter-butoxy-2-methyl-2,3-dihydro-1H-phenothiazin-4[10H]-one]
- responders at 30 mg/kg [1, 7]: 0%
- responders at 100 mg/kg [1, 7]: 0%
- responders at 300 mg/kg ([1]; 0.5 h, 30 min, read-out: scMet 30 min (converted)): 33.3%
- responders at 30 mg/kg ([1]; 4 h, read-out: scMet 4 h): 0%
- responders at 100 mg/kg ([1]; 4 h, read-out: scMet 4 h): 0%
- responders at 300 mg/kg ([1]; 4 h, read-out: scMet 4 h (converted)): 0%
- responders at 30 mg/kg ([2]; 4 h, read-out: MES 4 h): 0%
- responders at 100 mg/kg [2, 8]: 66.7%
- responders at 300 mg/kg [2, 8]: 100%
- responders at 3 mg/kg ([2]; 0.5 h, 3 mg/kg, 30 min): 0%
- responders at 10 mg/kg ([2]; 0.5 h, 10 mg/kg, 30 min, read-out: MES 30 min): 0%
- responders at 30 mg/kg [2, 9]: 100%
- responders at 100 mg/kg [2, 9]: 100%
- responders at 300 mg/kg [2, 9]: 100%
- Tox 30 min ([3]; 10 mg/kg): 0/4
- Tox 30 min ([3]; 30 mg/kg): 0/4
- Tox 4 h ([3]; 30 mg/kg): 0/2
- Tox 30 min ([3]; 100 mg/kg): 0/8
- Tox 4 h ([3]; 100 mg/kg): 0/4
- Tox 30 min ([3]; 300 mg/kg): 0/4
- Tox 4 h ([3]; 300 mg/kg): 0/2
- responders at 30 mg/kg ([4]; 0.25 h): 50%
- responders at 30 mg/kg ([4]; 1.00 h): 100%
- responders at 30 mg/kg ([4]; 2.00 h): 100%
- responders at 30 mg/kg ([4]; 4.00 h): 100%
- responders at 30 mg/kg ([4]; 0.5 h, 0.50 h): 50%
- Tox ([5]; 0.25 h): 0/4
- Tox ([5]; 0.50 h): 0/4
- Tox ([5]; 1.00 h): 0/4
- Tox ([5]; 2.00 h): 0/4
- Tox ([5]; 4.00 h): 0/4
- stability in refluxing DMSO [6]: lability of the 3-carbo-ter butoxy substituent
